# Entries after “also recorded” stand apart in the source; their conditions may differ.
# What was measured:
# [1] = tested on: sheep A3 adenosine receptor; settings: cited from earlier work
# [2] = tested on: myocardial ischemic injury; settings: inhibitor of mast cell degranulation; cited from earlier work
# [3] = tested on: rat A3 adenosine receptor; settings: cited from earlier work
# [4] = target: T1, human A3 adenosine receptor (Homo sapiens, UniProt P0DMS8); experiment: 125I-ABA binding to membranes of stably transfected CHO cells expressing the human A3 adenosine receptor (HS-21a); settings: for potency order of antagonists / potency order of agonists: order in words/symbols
# T1 construct: clone HS-21a contained the complete open reading frame corresponding to the human homolog of the rat A3 adenosine receptor; expressed in transfected cells; host or cells: CHO cells stably transfected with HS-21a cDNA
# T1 sequence (P0DMS8 1-318): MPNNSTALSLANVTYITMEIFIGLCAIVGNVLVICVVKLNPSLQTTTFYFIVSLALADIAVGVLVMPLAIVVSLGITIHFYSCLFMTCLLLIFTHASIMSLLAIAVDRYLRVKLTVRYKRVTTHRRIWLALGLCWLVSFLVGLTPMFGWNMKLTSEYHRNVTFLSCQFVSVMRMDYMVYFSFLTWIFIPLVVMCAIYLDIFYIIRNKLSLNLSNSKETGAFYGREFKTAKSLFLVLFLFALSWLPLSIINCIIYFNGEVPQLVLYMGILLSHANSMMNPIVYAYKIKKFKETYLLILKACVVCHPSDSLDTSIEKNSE
# Experimental: Membranes were prepared from transiently transfected COS7 cells […] after transfection or from G418-selected stably transfected CHO or HEK 293 cells. Cells were harvested in 1 mM EDTA in phosphate buffered saline and centrifuged at 2000×g for 10 minutes. The cell pellet was washed once with phosphate buffered saline. The cell pellet was resuspended in 2 mL of 5 mM Tris, pH 7.6/5mM MgCl2. Membranes were prepared from the cells by freeze-thaw lysis in which the suspension was frozen in a dry ice/ethanol bath and thawed at 25° C. twice. The suspension was homogenized after adding an additional 2 mL of 5 mM Tris, pH 7.6/5 mM MgCl2, in a glass dounce homogenizer with 20 strokes. The membranes were pelleted at 40,000×g at 4° C. for 20 minutes. The membrane pellet was resuspended at a protein concentration of 1-2 mg/mL in binding assay buffer, 50 mM Tris, pH 7.6/10 mM MgCl2. Protein concentration was determined by the method of Bradford ((1976) Anal. Biochem. 72: 248-250). […] Saturation binding of [^125 I]-N^6 -aminiobenizyladenosine (125I-ABA) or [^125 I]-N^6 -2-(4-amino-3-iodophenyl)ethyladenosine (APNEA) was performed on membranes prepared from pSVLA3 transfected COS7 cells. Membranes (100 μg) were incubated in the presence of 0.2 U/mL adenosine deaminase with increasing concentrations of ^125 I-ABA in the range of 0.1-30 nM for 120 minutes at 25° C. in a total volume of 500 μl. The binding assay was terminated by rapid filtration and three washes with ice-cold 50 mM Tris, pH 7.6/10 mM MgCl2 on a Skatron cell harvester equipped with a receptor binding flitermat (SKATRON INSTRUMENTS, INC). Non-specific binding was determined on non-transfected cells. Bound radioactivity was measured by scintillation counting in Ready Safe Scintillation Cocktail (BECKMAN).
# The 1.7 kb HS-21a cDNA (A3) was subcloned as a SalI-BamHl fragment into the expression vector pCMV5 (Mumby, S. M., Heukeroth, R. O., Gordon, J. I. and Gilman, A. G. (1990) Proc. Natl. Acad. Sci. USA 87, 728-732.) creating the vector pCMV5-A3. CHO or HEK 293 cells stably expressing the human HS-21 a cDNA were prepared by co-transfection of 15 μg pCMV5-A3 and 1 μg pWLneo (Stratagene) using the calcium phosphate method. Stable cell lines were also generated using EBV based mammalian expression vectors, pREP (INVITROGEN). Neomycin resistant colonies were selected in 1 mg/mL G418 (GIBCO). Stable colonies were screened for expression of HS-21a by ^125 I-ABA binding.
# Membranes were prepared from stable CHO cell lines in 10 mM Hepes, pH 7.4 containing 0.1 mM benzamidine and 0.1 mM PMSF as described (Mahan, L. C. et al., (1991) Mol. Pharinacol. 40, 1-7). Pellets were resuspended in 5 mM Hepes, pH 7.4/5 mM MgCl2 /0.1 mM benzarnidine/0.1 mM PMSF at a protein concentration of 1-2 mg/mL and were incubated with adenosine deaminase (Boehringer Mannheim), 2 U/mL at 37° C. for 20 minutes. Saturation binding of ^125 I-ABA was carried out on 50 μg of membranes for 120 minutes at 25° C. in a total volume of 100 μl. The assay was terminated by rapid filtration and three washes with ice-cold binding buffer on a Skatron harvester equipped with a receptor binding filtermat (Skatron Instruments, Inc.). The specific activity of ^125 I-ABA, initially 2,200 Ci/mmol, was reduced to 100 Ci/mmol with nonradioactive I-ABA for saturation analysis. Nonspecific binding was measured in the presence of 1 uM I-ABA. The KD and Bmax values were calculated by the EBDA program (McPherson, G. A. (1983) Computer Programs for Biomedicine 17, 107-114). Competition binding of agonists and antagonists was determined with ^125 I-ABA (0.17-2.0 nM, 2000 Ci/mmol). […] Binding data were analyzed and competition curves were constructed by use of the nonlinear regression curve fitting program Graph PAD InPlot, Version 3.0 (Graph Pad Software, San Diego).
# [5] = target: T1, human A3 adenosine receptor; experiment: inhibition of forskolin-stimulated cAMP accumulation in stably transfected CHO cells expressing the human A3 receptor; type: cell-based; settings: stably transfected CHO cells, human A3
# Experimental: The human A3 adenosine receptor from a striatal cDNA library can be cloned using a probe derived from the homologous rat sequence.
# cAMP Accumulation in Stable CHO Cell Lines
# The changes in cAMP accumulation can alternatively be measured in stably transfected CHO cells expressing the human adenosine receptor subtypes. CHO cells are washed twice in phosphate buffered saline (PBS) and detached in 0.2% EDTA in PBS. The cells are pelleted at 800 rpm for 10 min and resuspended in KRH buffer (140 mM NaCl/5 mM KCl/2 mM CaCl2 /1.2 mM MgSO4 /1.2 mM KH2 PO4 /6 mM glucose/25 mM Hepes buffer, pH 7.4). The cells are washed once in KRH buffer and resuspended at 10^7 cells/mL. The cell suspension (100 μl) is mixed with 100 μl of KRH buffer containing 200 uM Ro 20-1724 and incubated at 37° C. for 10 minutes. Adenosine (10 uM) was added in 200 μl KRH buffer containing 200 uM Ro 20-1724 and incubated at 37° C. for 20 minutes. After the incubation, 400 μl of 0.5 mM NaOAc (pH 6.2) was added and the sample was boiled for 20 minutes. The supernatant was recovered by centrifugation for 15 minutes and stored at -70° C. cAMP levels were determined by radiommunoassay (RIANEN kit, DuPont/NEN) using the to acetylation protocol. The effect of antagonists on cAMP accumulation are measured by preincubation for 20 minutes before adding adenosine.
# [6] = tested on: rat A3 adenosine receptor; settings: cited from earlier work; remark: listed apart in the source
# [7] = tested on: asthmatics; settings: cited from earlier work
# [8] = tested on: A2A adenosine receptor; settings: cited from earlier work
# [9] = tested on: sheep A3 adenosine receptor; settings: cited from earlier work; remark: listed apart in the source
# [10] = tested on: receptor exhibiting an agonist pharmacological profile thought to be characteristic of the rat A3 subtype; settings: angiotensin II-supported pithed rat; cited from earlier work
# [11] = tested on: A2B adenosine receptor; settings: cited from earlier work
# [12] = tested on: A1 adenosine receptor; settings: cited from earlier work
# [13] = target: T1, human A3 adenosine receptor; settings: cited from earlier work
# [14] = tested on: A3 adenosine receptor; settings: animal model; Jin et al. 1997; cited from earlier work
smiles,measurement,setting,value
"Nc1ccc(CCNc2ncnc3c2ncn3[C@@H]2O[C@H](CO)[C@@H](O)[C@H]2O)cc1I [APNEA, N^6-2-(4-amino-3-iodophenyl)ethyladenosine]",agonist affinity order,[1],I-ABA>APNEA>NECA≥R-PIA>>CPA
N#Cc1cc(NC(=O)C(=O)O)c(Cl)c(NC(=O)C(=O)O)c1 [lodoxamide],reduction of myocardial ischemic injury,[2],reduces myocardial ischemic injury
"CCCn1c(=O)c2[nH]c(C3CCCC3)nc2n(CCC)c1=O [DPCPX, 1,3-dipropyl-8-cyclopentylxanthine]",binding to rat A3 receptor,[3],not to bind
same,potency order of antagonists,[4]; human A3,"I-ABOPX>1,3-dipropyl-8-(4-acrylate) phenylxanthine (BW-A1433)≥xanthine amino cogener (XAC)>>1,3-dipropyl-8-cyclopentylxanthine (DPCPX)"
"C[C@@H](Cc1ccccc1)Nc1ncnc2c1ncn2[C@@H]1O[C@H](CO)[C@@H](O)[C@H]1O [S-PIA, (R,S)-N^6-phenyl-2-propyladenosine]",inhibition of forskolin-stimulated cAMP accumulation,[5],30-40%
same,potency order of agonists,[4]; human A3,N-ethylcarboxamidoadenosine (NECA)≥R-phenylisopropyladenosine(R-PIA)>N^6 -cyclopentyladenosine (CPA)>S-p-benylisopropyladenosine (S-PIA); also recorded: NECA>R-PIA>CPA>S-PLA
C[C@H](Cc1ccccc1)Nc1ncnc2c1ncn2[C@@H]1O[C@H](CO)[C@@H](O)[C@H]1O [R-PIA],agonist affinity order,[1],I-ABA>APNEA>NECA≥R-PIA>>CPA
same,inhibition of forskolin-stimulated cAMP accumulation,[5],30-40%
same,potency order of agonists,[4]; human A3,N-ethylcarboxamidoadenosine (NECA)≥R-phenylisopropyladenosine(R-PIA)>N^6 -cyclopentyladenosine (CPA)>S-p-benylisopropyladenosine (S-PIA); also recorded: NECA>R-PIA>CPA>S-PLA
same,potency order for inhibition of cyclic AMP accumulation,[6],NECA=R-PIA>CGS21680
"CCNC(=O)[C@H]1O[C@@H](n2cnc3c(N)ncnc32)[C@H](O)[C@@H]1O [NECA, N-ethylcarboxamidoadenosine]",agonist affinity order,[1],I-ABA>APNEA>NECA≥R-PIA>>CPA
same,inhibition of forskolin-stimulated cAMP accumulation,[5],30-40%
same,prevention of specific binding of 125I-ABA,[4]; 400 uM NECA,prevented
same,potency order of agonists,[4]; human A3,N-ethylcarboxamidoadenosine (NECA)≥R-phenylisopropyladenosine(R-PIA)>N^6 -cyclopentyladenosine (CPA)>S-p-benylisopropyladenosine (S-PIA); also recorded: NECA>R-PIA>CPA>S-PLA
same,potency order for inhibition of cyclic AMP accumulation,[6],NECA=R-PIA>CGS21680
CCCn1c(=O)c2[nH]c(-c3ccc(OCC(=O)NCCN)cc3)nc2n(CCC)c1=O [XAC],binding to rat A3 receptor,[3],not to bind
Cn1c(=O)c2[nH]cnc2n(C)c1=O [theophylline],antagonism of adenosine-induced bronchoconstriction,[7],antagonized
CCCn1c(=O)c2[nH]c(-c3ccc(OCC(=O)O)cc3)nc2n(Cc2ccc(N)c(I)c2)c1=O [I-ABOPX],A3 antagonist affinity in words,[4]; human A3,highest affinity para-substituted antagonist yet reported for A3 adenosine receptors
same,potency order of antagonists,[4]; human A3,"I-ABOPX>1,3-dipropyl-8-(4-acrylate) phenylxanthine (BW-A1433)≥xanthine amino cogener (XAC)>>1,3-dipropyl-8-cyclopentylxanthine (DPCPX)"
Cn1c(=O)c2[nH]c(-c3ccc(S(=O)(=O)O)cc3)nc2n(C)c1=O [8-(para-sulfophenyl)theophylline],action on A2A subtype,[8],broad action
same,blockade of sheep A3 receptor,[9],blocks
same,sensitivity of hypotension to blockade,[10],insensitive to blockade
same,action on A2B subtype,[11],broad action
same,action on A1 subtype,[12],broad action
same,blockade of human A3 receptor,[13],blocks
"CCCn1c(=O)c2[nH]c(-c3ccc(C=CC(=O)O)cc3)nc2n(CCC)c1=O [BW-A1433, 1,3-dipropyl-8-(4-acrylate) phenylxanthine]",potency order of antagonists,[4]; human A3,"I-ABOPX>1,3-dipropyl-8-(4-acrylate) phenylxanthine (BW-A1433)≥xanthine amino cogener (XAC)>>1,3-dipropyl-8-cyclopentylxanthine (DPCPX)"
OC[C@H]1O[C@@H](n2cnc3c(O)ncnc32)[C@H](O)[C@@H]1O [inosine],induction of mast cell degranulation,[14],induce mast cell degranulation
CCNC(=O)[C@H]1O[C@@H](n2cnc3c(N)nc(NCCc4ccc(CCC(=O)O)cc4)nc32)[C@H](O)[C@@H]1O [CGS21680],potency order for inhibition of cyclic AMP accumulation,[6],NECA=R-PIA>CGS21680
"OC[C@H]1O[C@@H](n2cnc3c(NC4CCCC4)ncnc32)[C@H](O)[C@@H]1O [CPA, N^6 -cyclopentyladenosine]",agonist affinity order,[1],I-ABA>APNEA>NECA≥R-PIA>>CPA
same,inhibition of forskolin-stimulated cAMP accumulation,[5],30-40%
same,Ki,"[4]; competition with 125I-ABA (FIG. 3a), read-out: Ki, agonists",89 nM
same,potency order of agonists,[4]; human A3,N-ethylcarboxamidoadenosine (NECA)≥R-phenylisopropyladenosine(R-PIA)>N^6 -cyclopentyladenosine (CPA)>S-p-benylisopropyladenosine (S-PIA); also recorded: NECA>R-PIA>CPA>S-PLA
"Nc1ccc(CCNc2ncnc3c2ncn3[C@@H]2O[C@H](CO)[C@@H](O)[C@H]2O)cc1[125I] [^125 I-APNEA, N^6-2-(4-amino-3^125 iodophenyl)ethyladenosine]",binding to rat A3 receptor,[3],bind
same,non-specific binding to CHO cell membranes,"[4]; 125I-APNEA, preliminary experiments",high non-specific

# — patent US6303619A, “Meta-substituted acidic 8-phenylxanthine antagonists of A3 human adenosine receptors” (priority 1998, dated 2001)
